Experimental data published in patent US7135493B2, “HDAC inhibitor” (Astellas Pharma Inc., priority 2003, dated 2006).

Tests used:
[1] = target: human histone deacetylase; assay: Test 1: Determination of histone deacetylase inhibitor activity ([3H]acetyl histone deacetylation); type: biochemical; conditions: human histone deacetylase partially purified from Jurkat cells; [3H]acetyl-labeled histones, 25° C., 30 minutes; read-out: Test 1: HDAC inhibitory activity IC50
Description: Test 1: Determination of Histone Deacetylase Inhibitor Activity
The partial purification of human histone deacetylase, the preparation of [^3H] acetyl histones, and the assay for histone deacetylase activity were performed basically according to the method as proposed by Yoshida et al. as follows.
Partial Purification of Human Histone Deacetylase
The human histone deacetylase was partially purified from human T cell leukemia Jurkat cells. Jurkat cells (5×10^8 cells) were suspended in 40 mL of the HDA buffer consisting of 15 mM potassium phosphate, pH 7.5, 5% glycerol and 0.2 mM EDTA. After homogenization, nuclei were collected by centrifugation (35,000×g, 10 min) and homogenized in 20 mL of the same buffer supplemented with 1 M (NH4)2SO4. The viscous homogenate was sonicated and clarified by centrifugation (35,000×g, 10 min), and the deacetylase was precipitated by raising the concentration of (NH4)2SO4 to 3.5 M. The precipitated protein was dissolved in 10 mL of the HDA buffer and dialyzed against 4 liters of the same buffer. The dialyzate was then loaded onto a DEAE-cellulose (Whatman DE52) column (25×85 mm) equilibrated with the same buffer and eluted with 300 mL of a linear gradient (0–0.6 M) of NaCl. A single peak of histone deacetylase activity appeared between 0.3 and 0.4 M NaCl.
Preparation of [^3H] Acetyl Histone
To obtain [^3H] acetyl-labeled histone as the substrate for the histone deacetylase assay, 1×10^8 cells of Jurkat in 20 mL of RPMI-1640 medium (supplemented with 10% FBS, penicillin (50 units/mL) and streptomycin (50 μg/mL)) were incubated with 300 MBq [^3H] sodium acetate in the presence of 5 mM sodium butyrate for 30 minutes in 5% CO2-95% air atmosphere at 37° C. in a 75 cm^2 flask, harvested into a centrifuge tube (50 mL), collected by centrifugation at 1000 rpm for 10 minutes, and washed once with phosphate-buffered saline. The washed cells were suspended in 15 mL of ice-cold lysis buffer (10 mM Tris-HCl, 50 mM sodium bisulfite, 1% Triton X-100, 10 mM MgCl2, 8.6% sucrose, pH 6.5). After Dounce homogenization (30 stroke), the nuclei were collected by centrifugation at 1000 rpm for 10 minutes, washed 3 times with 15 mL of the lysis buffer, and once with 15 mL of ice-cooled washing buffer (10 mM Tris-HCl, 13 mM EDTA, pH 7.4) successively. […]
For the standard assay, 10 μl of [^3H] acetyl-labeled histones were added to 90 μl of the enzyme fraction, and the mixture was incubated at 25° C. for 30 minutes. […] The released [^3H] acetic acid was extracted with 1 mL of ethyl acetate, and 0.9 mL of the solvent layer was taken into 10 mL of toluene scintillation solution for determination of radioactivity.

[2] = system: splenic cells of Lewis rats; assay: Test 2: Determination of T-cell growth inhibitor activity (T lymphocyte blastogenesis, Concanavalin A, AlamarBlue); type: cell-based; conditions: Lewis rat splenic cells, 72 hours, AlamarBlue Assay, read-out: Test 2: T-cell growth inhibitory activity IC50
Description: Test 2: Determination of T-Cell Growth Inhibitor Activity
The T lymphocyte blastogenesis test was performed in microtiter plates with each well containing 1.5×10^5 splenic cells of Lewis rats in 0.1 mL RPMI-1640 medium supplemented with 10% fetal bovine serum-(FBS), […] 2-mercaptoethanol, penicilln (100 units/mL) and streptomycin (100 μg/mL), to which Concanavalin A ([…]) was added. The cells were incubated at 37° C. in a humidified atmosphere of 5% CO2 for 72 hours. After the culture period, suppressive activities of the test compounds in T lymphocyte blastogenesis were quantified by AlamarBlue (trademark) Assay. The test samples were dissolved in DMSO and further diluted with RPMI-1640 medium and added to the culture. The activities of the test compounds were expressed as IC50.

`O=C(/C=C/c1ccc(Cc2nc3ccccc3[nH]2)cc1)NO` [Compound E1] was tested, and the IC50 [1] was 28 nM and the IC50 [2] was 69 nM.

`O=C(/C=C/c1ccc(CCc2nc3ccccc3[nH]2)cc1)NO` [Compound E3] gave an IC50 [1] of 140 nM and an IC50 [2] of 160 nM.

Molecule `O=C(/C=C/c1ccc(C(Cc2ccccc2)c2nc3ccccc3n2Cc2ccccc2)cc1)NO` (centres unmarked) [Compound E5] has an IC50 [1] of 96 nM and an IC50 [2] of 310 nM.

With `O=C(/C=C/c1cccc(Cc2nc3ccccc3[nH]2)c1)NO` [Compound E6] the IC50 [1] was 150 nM and the IC50 [2] was 150 nM.
